Data set [1] in a line: MTT in vitro cytotoxicity assay, A875 cells. As to conditions: A875 melanoma cells, A875 human melanoma cell line, triplicate, three independent experiments. It counts as cell-based. The text has this:
(§1) Pharmacological evaluation: All target carboxamide derivatives derived from natural arylsulfonamides 10a–r were screened for their potential in vitro cytotoxic effects on A875 (human melanoma), HepG2 (human hepatocellular liver carcinoma), and MARC145 (A subclone of African green monkey kidney cell line MA-104) cell lines using the standard MTT assay, with 5-FU (5-fluorouracil) as a positive control. The IC50 value represents the drug concentration required to inhibit cell growth by 50%.
(§2) Bioassays: The in vitro cytotoxicity of the novel carbazole derivatives against human melanoma (A875), human hepatocellular liver carcinoma (HepG2), and a subclone of African green monkey kidney cell line MA-104 (MARC145) cell lines was evaluated using the MTT assay. All data were analyzed with SPSS software, and the 50% inhibitory concentrations (IC50) of each compound for the different cell lines were determined. All assays were performed in triplicate on three independent experiments.

Data set [2] can be described thus: MTT in vitro cytotoxicity assay, MARC145 cells. As to conditions: MARC145 kidney cells (subclone of MA-104); MARC145 African green monkey kidney cell line; MTT assay; triplicate, three independent experiments. Format: cell-based, African green monkey.
Source text: as §1, §2

A short description of data set [3]: MTT in vitro cytotoxicity assay, HepG2 cells. Format: cell-based, human. As to conditions: HepG2 hepatocellular liver carcinoma cells; HepG2 human hepatocellular liver carcinoma cell line; MTT assay; triplicate, three independent experiments.
Source text: as §1, §2

In data set [4] the test system is MARC145 (a subclone of African green monkey kidney cell line MA-104). Put plainly: MTT in vitro cytotoxicity assay, MARC145 cells. It counts as cell-based. As to conditions: MARC145 cells; concentration 40 µg/mL; preliminary screening (Figure 4).
Source text: as §1, §2

Data set [5] relates to HepG2 (human hepatocellular liver carcinoma) cell line. Put plainly: MTT in vitro cytotoxicity assay, HepG2 cells. Format: cell-based. As to conditions: HepG2 cells; concentration 40 µg/mL; preliminary screening (Figure 4).
Source text: as §1, §2

Values after ≈ are worked out from the molar mass of the structure shown.

For the molecule `Cc1onc(NS(=O)(=O)c2ccc(NC(=O)c3ccccc3C(F)(F)F)cc2)c1C` [10c, N-(4-(N-(4,5-Dimethylisoxazol-3-yl)sulfamoyl)phenyl)-2-(trifluoromethyl)benzamide], the melting point is 183 to 184 °C. For the same molecule, in data set [1], the IC50 is greater than 40 µg/mL. The same molecule showed an IC50 in data set [2] greater than 40 µg/mL. In addition, the concentration for half-maximal inhibition (IC50) in data set [3] was greater than 40 µg/mL.
`Cc1onc(NS(=O)(=O)c2ccc(NC(=O)c3ccccc3-c3ccc(C(F)(F)F)cc3)cc2)c1C` [10o, N-(4-(N-(4,5-Dimethylisoxazol-3-yl)sulfamoyl)phenyl)-4′-(trifluoromethyl)-[1,1′-biphenyl]-2-carboxamide] had a melting point of 199 to 200 °C. Besides, the IC50 in data set [1] was greater than 40 µg/mL. Further, the IC50 in data set [2] is greater than 40 µg/mL. Moreover, in data set [3], the IC50 is greater than 40 µg/mL.
As to `CC(C(=O)Nc1ccc(S(=O)(=O)Nc2ccccc2Oc2ccccc2)cc1)c1ccc2c(c1)[nH]c1ccc(Cl)cc12` (stereo not drawn) [10r, 2-(6-Chloro-9H-carbazol-2-yl)-N-(4-(N-(2-phenoxyphenyl)sulfamoyl)phenyl)propanamide], the melting point is 166 to 167 °C. Moreover, the IC50 in data set [1] stood at 15.2 ± 2.4 µg/mL (≈ 25.4 µM). This molecule gave an IC50 in data set [2] of 5.96 ± 1.33 µg/mL (≈ 10 µM). Besides, the “Inhibitory activity at 40 µg/mL compared with control 5-FU” value in data set [4] is given as “significantly higher activities compared with the control”. The molecule further showed an IC50 in data set [3] of 8.84 ± 1.68 µg/mL (≈ 14.8 µM). Further, the “Inhibitory activity at 40 µg/mL compared with control 5-FU” value in data set [5] is “significantly higher activities compared with the control”.
Regarding `O=C(Nc1ccc(S(=O)(=O)Nc2ccccc2C(F)(F)F)cc1)c1ccccc1-c1ccc(C(F)(F)F)cc1` [10p, 4′-(Trifluoromethyl)-N-(4-(N-(2-(trifluoromethyl)phenyl)sulfamoyl)phenyl)-[1,1′-biphenyl]-2-carboxamide], the IC50 worked out at 20.4 ± 3.99 µg/mL (≈ 36.2 µM) in data set [1], 8.5 ± 2.55 µg/mL (≈ 15.1 µM) in data set [2] and 9.6 ± 0.88 µg/mL (≈ 17 µM) in data set [3]. The “Inhibitory activity at 40 µg/mL compared with control 5-FU” value in data set [4] and in data set [5] was “significantly higher activities compared with the control” throughout.
As to `O=c1[nH]cc(F)c(=O)[nH]1` [5-FU, 5-fluorouracil, reference compound], the IC50 worked out at 11.8 ± 2.03 µg/mL (≈ 90.4 µM) in data set [1], 13.1 ± 1.32 µg/mL (≈ 100 µM) in data set [2] and 15.1 ± 1.06 µg/mL (≈ 116 µM) in data set [3].
`O=C(Nc1ccc(S(=O)(=O)Nc2ccccc2-c2ccccc2)cc1)c1ccccc1-c1ccc(C(F)(F)F)cc1` [10m, N-(4-(N-([1,1′-Biphenyl]-2-yl)sulfamoyl)phenyl)-4′-(trifluoromethyl)-[1,1′-biphenyl]-2-carboxamide] yielded a melting point of 163 to 164 °C. This molecule also showed an IC50 in data set [1] greater than 40 µg/mL. Also, the 50% inhibitory concentration (IC50) in data set [2] is greater than 40 µg/mL. This molecule gave an IC50 in data set [3] greater than 40 µg/mL.
The molecule `O=C(Nc1ccc(S(=O)(=O)Nc2ccccc2Oc2ccccc2)cc1)c1cc(Br)nn1-c1ncccc1Cl` [10f, 3-Bromo-1-(3-chloropyridin-2-yl)-N-(4-(N-(2-phenoxyphenyl)sulfamoyl)phenyl)-1H-pyrazole-5-carboxamide] displayed a melting point of 177 to 178 °C. In data set [1], the IC50 was greater than 40 µg/mL. The molecule also returned a half-inhibitory concentration (IC50) in data set [2] of 11.8 ± 2.93 µg/mL (≈ 18.9 µM). This molecule also displayed a 50% inhibitory concentration (IC50) in data set [3] greater than 40 µg/mL.
`CC(C(=O)Nc1ccc(S(=O)(=O)Nc2ccccc2C(F)(F)F)cc1)c1ccc2c(c1)[nH]c1ccc(Cl)cc12` (stereo not drawn) [10q, 2-(6-Chloro-9H-carbazol-2-yl)-N-(4-(N-(2-(trifluoromethyl)phenyl)sulfamoyl)phenyl)propanamide] had a melting point of 159 to 160 °C. For the same molecule, the half-inhibitory concentration (IC50) in data set [1] amounted to 4.19 ± 0.78 µg/mL (≈ 7.33 µM). In data set [2], this molecule had an IC50 of 2.95 ± 0.78 µg/mL (≈ 5.16 µM). Further, in data set [4], the “Inhibitory activity at 40 µg/mL compared with control 5-FU” value is given as “significantly higher activities compared with the control”. Moreover, in data set [3], it took 3.55 ± 0.63 µg/mL (≈ 6.21 µM) to reach half-maximal inhibition (IC50). The “Inhibitory activity at 40 µg/mL compared with control 5-FU” value in data set [5] is listed as “significantly higher activities compared with the control”.
Consider `COC(=O)c1ccccc1NC(=O)c1ccccc1NS(=O)(=O)c1ccc(-c2ccccc2)cc1` [NC2, Methyl 2-(2-([1,1′-biphenyl]-4-sulfonamido)benzamido)benzoate], for which the IC50 in data set [1] and in data set [2] was greater than 40 µg/mL throughout.
Consider `Cc1c(C(=O)Nc2ccc(S(=O)(=O)Nc3ccccc3-c3ccccc3)cc2)cccc1-c1ccccc1` [10i, N-(4-(N-([1,1′-Biphenyl]-2-yl)sulfamoyl)phenyl)-2-methyl-[1,1′-biphenyl]-3-carboxamide], for which the IC50 in data set [1], in data set [2] and in data set [3] was greater than 40 µg/mL in each case.
For the molecule `Cc1c(C(=O)Nc2ccc(S(=O)(=O)Nc3ccccc3Oc3ccccc3)cc2)cccc1-c1ccccc1` [10j, 2-Methyl-N-(4-(N-(2-phenoxyphenyl)sulfamoyl)phenyl)-[1,1′-biphenyl]-3-carboxamide], the IC50 in data set [1], in data set [2] and in data set [3] was greater than 40 µg/mL in each case.
Consider `O=C(Nc1ccc(S(=O)(=O)Nc2ccccc2Oc2ccccc2)cc1)c1ccccc1C(F)(F)F` [10b, N-(4-(N-(2-Phenoxyphenyl)sulfamoyl)phenyl)-2-(trifluoromethyl)benzamide], for which the half-inhibitory concentration (IC50) in data set [1], in data set [2] and in data set [3] was greater than 40 µg/mL throughout.
For the molecule `O=C(Nc1ccc(S(=O)(=O)Nc2ccccc2-c2ccccc2)cc1)c1cc(Br)nn1-c1ncccc1Cl` [10e, N-(4-(N-([1,1′-Biphenyl]-2-yl)sulfamoyl)phenyl)-3-bromo-1-(3-chloropyridin-2-yl)-1H-pyrazole-5-carboxamide], the melting point lay in the range of 156 to 157 °C. Further, in data set [1], the IC50 is greater than 40 µg/mL. In addition, the IC50 in data set [2] is greater than 40 µg/mL. Also, the concentration for half-maximal inhibition (IC50) in data set [3] was greater than 40 µg/mL.
Molecule `O=C(O)c1ccccc1NS(=O)(=O)c1ccc(-c2ccccc2)cc1` [NC1, 2-([1,1′-Biphenyl]-4-sulfonamido)benzoic acid] returned a melting point of 205 to 207 °C. Moreover, the IC50 in data set [1] was 27.2 ± 5.39 µg/mL (≈ 76.9 µM). In data set [2], half-maximal inhibition (IC50) was put at 25.8 ± 10.4 µg/mL (≈ 73 µM).
Regarding `O=C(Nc1ccc(S(=O)(=O)Nc2ccccc2C(F)(F)F)cc1)c1ccccc1C(F)(F)F` [10d, 2-(Trifluoromethyl)-N-(4-(N-(2-(trifluoromethyl)phenyl)sulfamoyl)phenyl)benzamide], the IC50 was greater than 40 µg/mL in data set [1], 24.9 ± 4.45 µg/mL (≈ 51 µM) in data set [2] and 33.1 ± 2.13 µg/mL (≈ 67.7 µM) in data set [3].
`Cc1onc(NS(=O)(=O)c2ccc(NC(=O)c3cc(Br)nn3-c3ncccc3Cl)cc2)c1C` [10g, 3-Bromo-1-(3-chloropyridin-2-yl)-N-(4-(N-(4,5-dimethylisoxazol-3-yl)sulfamoyl)phenyl)-1H-pyrazole-5-carboxmide]: the melting point was in the range of 171 to 172 °C. Further, in data set [1], the IC50 was greater than 40 µg/mL. The molecule also displayed an IC50 in data set [2] greater than 40 µg/mL. In data set [3], this molecule displayed an IC50 greater than 40 µg/mL.
In turn, `Cc1onc(NS(=O)(=O)c2ccc(NC(=O)c3cccc(-c4ccccc4)c3C)cc2)c1C` [10k, N-(4-(N-(4,5-Dimethylisoxazol-3-yl)sulfamoyl)phenyl)-2-methyl-[1,1′-biphenyl]-3-carboxamide] came in with a melting point of 156 to 157 °C. The molecule further yielded an IC50 in data set [1] greater than 40 µg/mL. In data set [2], this molecule had a half-maximal inhibitory concentration (IC50) greater than 40 µg/mL. Moreover, the IC50 in data set [3] stood at 34.7 ± 2.94 µg/mL (≈ 75.2 µM).
Take `O=C(Nc1ccc(S(=O)(=O)Nc2ccccc2C(F)(F)F)cc1)c1cc(Br)nn1-c1ncccc1Cl` [10h, 3-Bromo-1-(3-chloropyridin-2-yl)-N-(4-(N-(2-(trifluoromethyl)phenyl)sulfamoyl)phenyl)-1H-pyrazole-5-carboxamide]: the melting point lay in the range of 181 to 182 °C. In data set [1], this molecule yielded an IC50 of 16.8 ± 1.14 µg/mL (≈ 27.9 µM). Further, 6.75 ± 0.89 µg/mL (≈ 11.2 µM) corresponded to half-maximal inhibition in data set [2] (IC50). For the same molecule, in data set [3], the IC50 amounted to 14.4 ± 1.89 µg/mL (≈ 23.9 µM).
Consider `Cc1c(C(=O)Nc2ccc(S(=O)(=O)Nc3ccccc3C(F)(F)F)cc2)cccc1-c1ccccc1` [10l, 2-Methyl-N-(4-(N-(2-(trifluoromethyl)phenyl)sulfamoyl)phenyl)-[1,1′-biphenyl]-3-carboxamide], for which the IC50 came to 10.8 ± 2.28 µg/mL (≈ 21.1 µM) in data set [1], 5.62 ± 0.98 µg/mL (≈ 11 µM) in data set [2] and 9.03 ± 1.49 µg/mL (≈ 17.7 µM) in data set [3]. Besides, the “Inhibitory activity at 40 µg/mL compared with control 5-FU” value in data set [4] and in data set [5] was “significantly higher activities compared with the control” in each case.
With `O=C(Nc1ccc(S(=O)(=O)Nc2ccccc2-c2ccccc2)cc1)c1ccccc1C(F)(F)F` [10a, N-(4-(N-([1,1′-Biphenyl]-2-yl)sulfamoyl)phenyl)-2-(trifluoromethyl)benzamide], the IC50 in data set [1] is greater than 40 µg/mL; in data set [2], 13.2 ± 2.49 µg/mL (≈ 26.5 µM); in data set [3] it was 22.1 ± 3.99 µg/mL (≈ 44.4 µM).
Regarding `O=C(Nc1ccc(S(=O)(=O)Nc2ccccc2Oc2ccccc2)cc1)c1ccccc1-c1ccc(C(F)(F)F)cc1` [10n, N-(4-(N-(2-Phenoxyphenyl)sulfamoyl)phenyl)-4′-(trifluoromethyl)-[1,1′-biphenyl]-2-carboxamide], the melting point was in the range of 173 to 174 °C. Besides, in data set [1], the IC50 was greater than 40 µg/mL. The molecule also came in with a half-inhibitory concentration (IC50) in data set [2] of 22.6 ± 2.78 µg/mL (≈ 38.3 µM). Also, the IC50 in data set [3] is greater than 40 µg/mL.

(Values after PMC8911723, “Design, Synthesis, and Cytotoxic Activity of Novel Natural Arylsulfonamide-Inspired Molecules” (Molecules, 2022).)
